According to the METLIN SMRT retention time set (Domingo-Almenara et al. 2019):

Test: gradient 5% acetonitrile 3 min, to 50% in 2 min, to 85% in 15 min, held 3 min, 100 µL/min
Settings: column: Zorbax Extend-C18 2.1 x 50 mm; eluents: water / acetonitrile, 0.1% formic acid
Summary of the method: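 Data were gathered over 3 months by HPLC coupled to a quadrupole time-of-flight mass spectrometer, operated in positive and negative ionization mode. Mixtures of ~100 pure standards ran on a Zorbax Extend-C18 column (2.1 × 50 mm, 1.8 μm) at 100 μL/min, with water and acetonitrile each containing 0.1% formic acid and dead and dwell volumes of 40 μL and 900 μL. Retention time was read from adduct peaks picked by computer and checked manually.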

Row | SMILES | RP-LC retention time [s]
1 | Cc1ccccc1-c1noc(Cn2c(=O)n(-c3ccccc3F)c(=O)c3sccc32)n1 | 1030
2 | O=C(C1CCN(c2nc3ccc(-c4cccs4)nc3s2)CC1)N1CCOCC1 | 826
3 | COCc1nnc(C(=O)Nc2cccc(C(=O)NCCc3c[nH]c4ccc(OC)cc34)c2)s1 | 799
4 | Cn1ncc2c(N3CCSCC3)nc(C(=O)NCCc3ccncc3)nc21 | 559
5 | CCn1ccc2sc(C)c(C(=O)NCc3cccc(F)c3)c2c1=O | 822
6 | CCN1C(=O)c2cccnc2Sc2cc(NC(=O)c3cccc(C(F)(F)F)c3)ccc21 | 957
7 | CN1C(=O)c2cccn2CC1C(=O)Nc1ccccc1F (stereo unspecified) | 673
8 | Cc1ccc(Nc2c(-c3cccc(Br)c3)nc3ccc(Br)cn23)cc1 | 1140
9 | Cc1ccc(CNC(=O)C2CCN(Cc3cc4ccccc4n3Cc3cccc(Cl)c3)CC2)o1 | 943
10 | CCn1ccc(NC(=O)c2cccc(C)c2)n1 | 743
11 | CN(C)CCNC(=O)CN1C(=O)CN(C(=O)NCc2ccccc2)c2ccccc21 | 606
12 | CCn1c(=O)sc2cc(S(=O)(=O)N3CCC(C(=O)Nc4ccc(F)c(Cl)c4)CC3)ccc21 | 1010
13 | Cc1ccc2nc(-c3ccc(NS(=O)(=O)c4cn(C)c(=O)n(C)c4=O)cc3)sc2c1 | 870
14 | Cc1ccc(S(=O)(=O)N2CCC(C(=O)NCC(=O)N3CCCc4ccccc43)CC2)cc1 | 843
15 | COc1ccc2[nH]cc(C3=CCNCC3)c2c1 | 648
16 | CCn1nccc1C(=O)Nc1ccc(-c2nnc3n2CCCC3)cc1 | 1010
17 | CCOCC(=O)Nc1ccc(CC(=O)NCC(F)(F)F)cc1 | 644
18 | Cc1oc(C2CCN(C(=O)Cc3c(F)cccc3Cl)CC2)nc1C(=O)N(C)C | 747
19 | Cc1ccc(NC(=O)NC2CCN(c3ccccc3)C2=O)cc1 (stereo unspecified) | 821
20 | Cc1ncsc1CN1CCCC(c2nncn2-c2ccccc2)C1 (stereo unspecified) | 496
21 | CCc1cccc(C)c1NC(=O)Cn1c(C)nc2c(sc3nc(-c4ccccc4)ccc32)c1=O | 1110
22 | O=C(Cn1c(Cc2ccc(Cl)cc2)nc2ccccc21)N1CCCCCC1 | 739
23 | CCc1noc(NC(C)=O)c1-c1ccc(OC)c(S(=O)(=O)N2CC=C(c3ccccc3)CC2)c1 | 918
24 | CCn1nnc2c(N3CCN(S(=O)(=O)c4cccc(Cl)c4)CC3)ncnc21 | 880
25 | O=S1(=O)C[C@H](N2CCN(c3ncccn3)CC2)[C@@H](S(=O)(=O)c2ccc(F)cc2)C1 | 772
26 | COc1cc2c(cc1C(=O)NCCOc1ccc(Cl)cc1)OCCCO2 | 982
27 | COc1ccc(C)cc1NC(=O)Cn1c(N2CCOCC2)nc(C)cc1=O | 719
28 | Cc1ccccc1CNC(=O)CN1CCN(Cc2cccc(Cl)c2)C1=O | 880
29 | Cc1ccc(CN2N=C(C(=O)N3CCOCC3)S(=O)(=O)c3cc(Cl)ccc32)cc1 | 896
30 | CCn1cc(-c2nc(-c3ccc(Cl)cc3)no2)c(=O)c2cc(F)c(N3CCOCC3)cc21 | 1020

Next, values leading:

Row | RP-LC retention time [s] | SMILES
31 | 855 | Cc1cc(C)c(C(=O)N2CCCC(C(=O)NCc3cccc(Br)c3)C2)[nH]1 (stereo unspecified)
32 | 846 | Cc1ccc(-c2nnc(SCc3noc(CCC(=O)Nc4cc(C)on4)n3)o2)cc1
33 | 814 | O=C(NCc1ccc(F)cc1Cl)c1cn(-c2ccc(NC(=O)C3CC3)cn2)cn1
34 | 1030 | CCOC(=O)C1CCN(c2ncc(S(=O)(=O)c3ccc(Cl)cc3)c(N)n2)CC1
35 | 955 | Cc1cc(N2CCN(S(=O)(=O)c3ccc4cccc5c4c3CC5)CC2)nc(NC2CCCCC2)n1
36 | 965 | Cc1cccc(-c2nocc2CCC(=O)NC(C)c2ccc(F)cc2)c1 (stereo unspecified)
37 | 837 | O=C(c1cccc(Br)c1)N1CCN(c2cc(-c3cccs3)[nH]n2)CC1
38 | 926 | CCn1c(=O)c2ccccc2n(Cc2nc(-c3ccc(SC)cc3)no2)c1=O
39 | 860 | Cc1cccc(-c2cc3n(n2)CCCN(C(=O)c2n[nH]c4ccccc24)C3)c1
40 | 740 | CCn1c(N2CCC(C(=O)NCc3ccc4c(c3)OCO4)CC2)cc(=O)n(C)c1=O
41 | 693 | COc1ccc(-c2noc(CCC(=O)O)n2)cc1
42 | 1130 | CCOc1c(Br)cc(C(=O)Nc2ccc(C(=O)O)cc2)cc1C(=O)c1ccc(C)cc1
43 | 1030 | Cn1nccc1-c1cccc(-c2noc(-c3cccc(C#N)c3)n2)c1
44 | 1140 | Cc1ccc(C(=O)N2CCN(c3nc4ccccc4n(CC(C)C)c3=O)CC2)s1
45 | 859 | CC(C)c1ccc(-c2nc3ncccn3c2NCc2ccccc2)cc1
46 | 872 | COc1ccc(OC)c2sc(NC(=O)c3ccc(S(=O)(=O)N4CCCC4)cc3)nc12
47 | 724 | Cc1cc(C)c(C)c(S(=O)(=O)NCC(=O)NCC2CCCO2)c1C (stereo unspecified)
48 | 682 | O=C(NCCCN1CCc2ccccc2C1)C1CCCN(S(=O)(=O)N2CCCCCC2)C1 (stereo unspecified)

Row | RP-LC retention time [s] | SMILES
49 | 657 | Cc1ccc(S(=O)(=O)c2ccc(N3CCN(c4ccccn4)CC3)nn2)cc1C
50 | 1060 | C=Cc1ccc(Cn2nc3ccc(S(=O)(=O)N4CCC(C)CC4)cn3c2=O)cc1
51 | 722 | CC(C)c1ccc(-n2c3c(cc(C(=O)N4CCOCC4)c2=O)C(=O)CCC3)cc1
52 | 1140 | COc1ccc2sc(OC3CCN(C(=O)c4cnn(-c5ccccc5)n4)CC3)nc2c1
53 | 729 | Cc1ccc(/C=C/S(=O)(=O)N2CC(c3nc(-c4ncccn4)no3)C2)cc1
54 | 835 | COc1cccc(CNC(=O)Cn2c(=O)c3cc(-c4cccs4)nn3c3ncccc32)c1
55 | 824 | COc1ccc(CC(=O)N2CCCC2COc2ccc(C(=O)N3CCCC3)cc2)cc1 (stereo unspecified)
56 | 586 | COc1ccc(-c2cc3nc(C)cc(Nc4ccc(C(N)=O)cc4)n3n2)cc1OC
57 | 808 | O=C(c1ccc(F)cc1)N1CCN(S(=O)(=O)c2cc3c4c(c2)CCC(=O)N4CCC3)CC1
58 | 643 | CCN1C(=O)COc2ccc(-c3nc(NC(=O)C(C)(C)C)sc3C)cc21
59 | 872 | O=C1N=C(N2CCOCC2)S/C1=C/c1ccc(-c2ccccc2Br)o1
60 | 797 | O=C(CS(=O)Cc1cnn(-c2ccccc2)c1-n1cccc1)NCc1ccccc1 (stereo unspecified)
61 | 700 | Cc1cccc(C(=O)NCc2ccc3c(c2)nnn3C)c1
62 | 843 | CCN(CC)CCCCN1c2ccccc2Oc2ccc(Cl)cc21
63 | 993 | Cc1ccc(C(=O)Nc2cc(-c3cccs3)no2)cc1
64 | 854 | CC(C)NC(=O)N1CCCC(c2cccc(C(=O)NCc3ccccc3F)c2)C1 (stereo unspecified)
65 | 913 | COC(=O)C1=CN(c2cccc(Br)c2)c2ccc(F)cc2S1(=O)=O
66 | 557 | CNC(=O)c1cc(N(C)C)nc2c(C)cccc12
